Key:
leukemia cell lines = experiment: NCI-60 one dose screen, leukemia cell lines; format: cell-based; conditions: 10 μM, each leukemia cell line
Method: (§1) One dose and five dose cytotoxicity screening was performed by the NCI-60 screening program of the National Institutes of Health (NIH), which is known in the art and available from the NIH. The NCI-60 panel is a collection of cancer cell lines, from various diverse tumors, which was developed in the 1980s by the National Cancer Institute to aid screening efforts for cytotoxic or cytostatic compounds.
(§2) In these screens, 60 cell lines, were utilized to determine the cytotoxic effect of small molecules, natural products, and other drug candidates. […]
(§3) The five dose screen was performed by creating four 10-fold dilutions of the highest concentration of the diluted 7-acetoxyroyleanone made in the same manner as the one dose screen. […] The bound stain was then dissolved in 10 mM trizma base and the absorbance was read using an automated plate reader at 515 nm. […]

[1] = system: DU-145 (prostate cancer) cells; experiment: NCI-60 five dose screen, DU-145; conditions: read-out: LC50; DU-145, Prostate
[2] = system: MDA-MB-435 (melanoma) cells; experiment: NCI-60 five dose screen, MDA-MB-435; conditions: read-out: LC50; MDA-MB-435, Melanoma
[3] = system: A498 (renal cancer) cells; experiment: NCI-60 five dose screen, A498; conditions: read-out: LC50; A498, Renal
[4] = read-out: LC50; melanoma cell line SK-OV-3 (so in the source), most sensitive to cell death
[5] = system: NCI-H522 (non-small cell lung cancer) cells; experiment: NCI-60 five dose screen, NCI-H522; conditions: read-out: LC50; NCI-H522, Non-small Cell Lung Cancer
[6] = system: RXF 393 (renal cancer) cells; experiment: NCI-60 five dose screen, RXF 393; conditions: read-out: LC50; RXF 393, Renal
[7] = system: NCI-60 panel of cancer cell lines; experiment: NCI-60 one dose screen, whole panel; format: cell-based; conditions: 10 μM, 48 hours
Method: as §1, §2, §3

CC(=O)O[C@@H]1C[C@H]2C(C)(C)CCC[C@]2(C)C2=C1C(=O)C(C(C)C)=C(O)C2=O [7-acetoxyroyleanone]
cell death versus growth inhibition (leukemia cell lines): did not appear to induce cell death, but rather growth inhibition | CC50 [1]: 5.67 µM | CC50 [2]: 5.87 µM | CC50 [3]: 5.19 µM | CC50 [4]: 4.34 µM | CC50 [5]: 9.02 µM | CC50 [6]: 5.87 µM | growth percent, average for all cell types screened [7]: −18.5% | growth inhibition of each cell line compared to the control ([7]; minimum over all cell lines): at least 72.88%

Source: patent publication US20180353457A1, “ABIETANE DITERPENOID 7-ACETOXYROYLEANONES FOR USE IN CANCER TREATMENT” (University of South Carolina, priority 2017, published 2018)
